assay: Human HepG2 cell viability assay in 384 well format; format: toxicity, cell-based; set-up: dose 125 nL, time 70.5 hour; concentration not given beside the values; conditions: HepG2 cells, read-out: Inhibition

| SMILES | cytotoxicity at 70.5 h |
| --- | --- |
| O=C(CCNc1ccc(Br)cn1)NCc1ccncc1 | 0.0133% |
| Cc1nc(C2CCCNC2)cc(N2CCc3nc(N)sc3C2)n1 (stereo not drawn) | 17.4% |
| CNc1nc(CNC(=O)Nc2ccccc2SC)cs1 | 3.31% |
| CCc1nc(C)c([C@H]2CN(C)C[C@@H]2C(=O)NCc2ccccn2)[nH]1 | -2.64% |
| COc1ccccc1N1CCN(C(=O)c2ccoc2)CC1 | -6.02% |
| Cc1csc(CNC(=O)NC2CCCc3c2cnn3CCO)n1 (stereo not drawn) | -9.89% |
| CCn1ccnc1CN1CCN(CCOc2ccc(C#N)cc2)CC1 | -4.7% |
| CC(=O)Nc1ccc(CC(=O)N2CC(S(=O)(=O)C3CCCCC3)C2)cc1 | -3.63% |
| Cc1ccc(CN(C)C(=O)CN2CCOC(Cn3cncn3)C2)o1 (stereo not drawn) | 9.12% |
| Cc1ccc(CN(C)C(=O)c2cc3c(c(S(N)(=O)=O)c2)CCC3)o1 | -1.72% |
| CN(CCn1cccn1)S(=O)(=O)N1CCCC1c1ccco1 (stereo not drawn) | -17% |
| COCCCOc1ccc(C(=O)N(C)CCC(C)C)cn1 | 20.8% |
| c1cnc(N2CCO[C@H]3CN(CC4CCCC4)C[C@H]32)cn1 | 2.36% |
| Cc1cccc(S(=O)(=O)N2C[C@@H]3OCCN(C(C)C)[C@@H]3C2)c1 | -6.06% |
| CC(=O)NCCc1ccc(S(=O)(=O)Nc2ccc(C)cc2F)s1 | -2.14% |
| CN(C)C(CNC(=O)c1cc2c([nH]c1=O)CCCC2=O)c1ccsc1 (stereo not drawn) | -2.41% |
| COc1cccc2[nH]cc(CCNC(=O)N3CCOCC3C3CC3)c12 (stereo not drawn) | 23.2% |
| CC(C)n1nc2c(cc1=O)CN(c1ncnc3ccccc13)CC2 | -1.82% |
| CCN1C(=O)CCCC12CCCN(C(=O)c1ccncc1F)C2 (stereo not drawn) | -2.27% |
| CN(CCc1ccccc1)C(=O)c1cccnc1OCC(F)(F)F | 20% |
| Cc1ncsc1CN1CC[C@H]2OCC[C@@]2(C(=O)N2CCCC2)C1 | -1.98% |
| COc1cccc(OCCNC(=O)CN2CCN(C)CC2C)c1 (stereo not drawn) | -13.4% |
| Cc1nn(Cn2ccc(C(=O)N3CCC(C)CC3)n2)c(C)c1Cl | -13.2% |

| SMILES | cytotoxicity at 70.5 h |
| --- | --- |
| COCC1CN(C(=O)Nc2cc(-n3cccc3)ccc2F)CCO1 (stereo not drawn) | 7.34% |
| CN(Cc1cnn(C)c1)C(=O)CN1CCCCC1Cn1cncn1 (stereo not drawn) | -7.41% |
| O=C(Nc1cccnc1)[C@H]1C[C@@H]2CN(C(=O)NC3CCCC3)C[C@H]1O2 | -1.2% |
| CNC(=O)NC(C)c1nc(-c2ccccc2)c[nH]1 (stereo not drawn) | -3.67% |
| c1cnc(N2CCCC3(CCN(Cc4cccs4)C3)C2)nc1 (stereo not drawn) | -6.41% |
| CSCC[C@@H]1CN2CCC[C@H]2CN1Cc1coc2ccc(Cl)cc2c1=O | -5.47% |
| COc1cccc(CNCc2nnc3n2CC(C(F)(F)F)CC3)c1 (stereo not drawn) | 6.13% |
| Cn1cccc1C(=O)N1CCN(Cc2ccncc2)c2ncccc2C1 | -7.79% |
| Cc1ccccc1SCC(=O)Nn1cnnc1 | -9.7% |
| O=C1CCC2(CCCN(C(=O)c3ccco3)CC2)N1 (stereo not drawn) | -3.81% |
| CN1CCOC(CNC(=O)CCCOCCc2ccccc2)C1 (stereo not drawn) | -14.2% |
| CC(=O)N1CCOCC2(CN(Cc3ccc(C)o3)CCO2)C1 (stereo not drawn) | 28.8% |
| CCN1CCN(S(=O)(=O)c2cc(C)c(Cl)cc2Cl)CC1 | 10.1% |
| CC(C)CN1CCC2(CCN(Cc3ccc(F)cc3)CC2)C1=O | -5.32% |
| c1cc(CNCc2ccnc(N3CCCC3)c2)c2c(c1)OCCO2 | 5.3% |
| CSCC(=O)NC1(c2cccc(Cl)c2)CC1 | -3.77% |
| COc1ccc(CNCCn2c(C)nc3ccccc32)cc1O | -8.82% |
| Cc1ccc(CN(C)C(=O)C(C)n2cncn2)o1 (stereo not drawn) | -4.1% |
| CCn1cc(CNc2ccc3nccnc3c2)cn1 | 7.17% |
| Cc1nc(CN2C[C@@H]3CN(C(=O)Cc4ccccn4)C[C@@H]3C2)cs1 | -4.03% |
| O=C(Nc1ccccc1F)C1=NOC2(CCNCC2)C1 | -2.62% |
| CC[C@@H](C)[C@@H](N)C(=O)Nc1cccc(-c2cnc(N(C)CCO)nc2)c1 | -6.3% |
| CN(Cc1cncnc1)[C@H]1CN(C(=O)c2ccc[nH]2)[C@@H]2CCCO[C@@H]21 | -8.37% |

| SMILES | cytotoxicity at 70.5 h |
| --- | --- |
| Cc1cc(C(=O)N2CCC(O)(Cn3ccc4ccncc43)CC2)on1 | 17.8% |
| Cc1ccc(CN(C)C(C(=O)O)c2ccc3c(c2)OCO3)o1 (stereo not drawn) | -7.76% |
| CN1CCO[C@H]2CN(C(=O)c3ccoc3)C[C@H]21 | -7.03% |
| COc1ccc(C2=CNC(C(F)(F)F)=CC2N)cc1 (stereo not drawn) | -0.00247% |
| O=C1CSC(c2ccc3c(c2)OCO3)c2cn[nH]c2N1 (stereo not drawn) | -4% |
| COCC(=O)N1CCC(c2cc3ncccc3c(O)n2)CC1 | -7.25% |
| CC(C)C(=O)N1CCN(Cc2csc(-c3ccccn3)n2)CC1 | -7.7% |
| COc1ccccc1CN(C)c1nc2c(cnn2C)c(=O)[nH]1 | -10.3% |
| COc1ccc(CN2C[C@@H]3CN(Cc4ccncc4)C[C@@H]3C2=O)cc1 | -8.45% |
| CC(C)N(Cc1c[nH]nc1-c1ccc2c(c1)OCO2)Cc1nccn1C | -4.64% |
| CN(CC(F)(F)F)C(=O)CN1CCC(c2cc3ccccc3[nH]2)CC1 | -25% |
| Cc1nn(C)c(C)c1-c1cc(-c2cc(CC(=O)O)cs2)nc(N)c1C#N | -7.79% |
| Cc1nccc(CNc2cc(N3CCCC3CO)ncn2)n1 (stereo not drawn) | 2.68% |
| CC(Cn1cccn1)NC(=O)CCc1nc(C(C)(C)C)no1 (stereo not drawn) | -2.44% |
| CCn1cc(CN2CCC(c3nnc(CN(C)C)n3CC)CC2)cn1 | 10.9% |
| CCc1cc(=O)[nH]c(-c2ccc(NCCc3ccc(O)cc3)nc2)n1 | -3.24% |
| Cc1cc(N2CCC(N3CCOCC3)C2)n2nc(C)c(C)c2n1 (stereo not drawn) | -4.03% |
| CS(=O)(=O)N1CCC2(CC1)COC(COc1ccccn1)C2 (stereo not drawn) | -12.3% |
| O=C(C1CCOCC1)N1C[C@H]2CC[C@@H]1CN(C1Cc3ccccc3C1)C2 | -5.9% |
| Cn1ncc(C(=O)OCC2CCN(c3ccccc3)C2)c1C(F)F (stereo not drawn) | -3.5% |
| O=C(NCCn1ccnc1)N1CCCC1c1ccsc1 (stereo not drawn) | -4.3% |
| CS(=O)(=O)NCC1CCCN(C(=O)c2ccco2)C1 (stereo not drawn) | -6.79% |
| Cc1nc(C)n(CC2CCCN(Cc3cccc(C(N)=O)c3)C2)n1 (stereo not drawn) | -1.85% |

| SMILES | cytotoxicity at 70.5 h |
| --- | --- |
| COc1cccc(C(=O)NCc2ccccc2S(=O)(=O)N(C)CCO)c1 | -4.69% |
| CC(NC(=O)Nc1cccnc1N1CCCC1)c1nncn1C (stereo not drawn) | -13.7% |
| FC(F)(F)c1n[nH]c2c1CN(Cc1cn3ccccc3n1)CC2 | -6.32% |
| CNC(=O)c1cccc(CCNc2ccc(C#N)cn2)c1 | 0.174% |
| COC(=O)c1ccoc1CN(C)Cc1cc(OC)c(OC)cc1C | -12.1% |
| CN1CCC(Cc2cc(Nc3ncccn3)ncn2)CC1 | -4.15% |
| O=C(c1ccc(NCc2ccco2)nc1)N1CCc2ccccc21 | -3.94% |
| O=C(c1cccc(O)n1)N1CCC(O)(CN2CCC(F)(F)CC2)C1 (stereo not drawn) | -8.18% |
| CCOCc1ncn2c1CN(C(=O)Nc1ccccc1)CC2 | -15.7% |
| CC(C)C1CN(C(=O)c2ccc(Cl)cn2)CCCN1CC1CC1 (stereo not drawn) | -6.77% |
| O=C(Cn1nc(C(F)(F)F)c(Cl)c1C1CC1)NN1CCOCC1 | 12.9% |
| CN(Cc1ccccn1)C1CCCN(Cc2noc(C3CC3)n2)C1 (stereo not drawn) | -8.62% |
| Cn1cc(-c2nc(C3CCN(S(C)(=O)=O)CC3)cc3c2ncn3C)cn1 | 23.5% |
| COCC(=O)Nc1ccc(-c2noc([C@@H]3CCCN3)n2)cn1 | -0.348% |
| NC(=O)N1CCCN(CCCSCc2ccccc2)CC1 | -17.6% |
| NC(=O)NCC(=O)N1CCCC(OCc2cccnc2)C1 (stereo not drawn) | 47.2% |
| CC(C)(C)c1nc(CN2CCCN(Cc3cccs3)CC2)no1 | -18.1% |
| Cc1nc(C(=O)N2CCCC2c2noc(C)n2)c[nH]1 (stereo not drawn) | -4.04% |
| CS(=O)(=O)c1cccc(C(N)c2ccccc2)c1 (stereo not drawn) | -1.27% |
| O=C(c1cccc(C2CCNC2)c1)N1CCC(c2ncc[nH]2)CC1 (stereo not drawn) | -17% |
| CSCCC(NC(=O)c1ccc2ccccc2n1)C(=O)NC(C)C (stereo not drawn) | -3.96% |
| CCCc1nnc(N2CCN(c3ccccc3Cl)CC2)o1 | -0.178% |
| Cn1cc(C(=O)N2CC[C@@H]3[C@@H]2CCN3Cc2cccnc2)cn1 | -14.5% |

| SMILES | cytotoxicity at 70.5 h |
| --- | --- |
| O=C(c1cncc(Br)c1)N1CCC(O)(Cn2ccc3ccncc32)CC1 | -13.2% |
| O=C(CC1CCCC1)N1CCC(c2nnc(-c3ccccn3)o2)CC1 | 31.3% |
| O=C(C1=CCCC1)N1CC[C@]2(C[C@H](OCc3cccnc3)CO2)C1 | -12.5% |
| O=C(C1CCOC1)N1C[C@H]2CN(Cc3cccnc3)C(=O)[C@H]2C1 (stereo partly drawn) | 11.7% |
| CCN(C)S(=O)(=O)NCC(O)c1c(Cl)cccc1Cl (stereo not drawn) | 18.4% |
| COCCNC(=O)c1cc(C(C)C)nc(N2CCCCC2)n1 | -9.32% |
| O=C(NC[C@H]1OC[C@@H](NC(=O)c2ccccc2)[C@@H]1O)c1ccncc1 | -0.603% |
| CC(=O)N1CCCN(C(=O)NCCOc2ccc3c(c2)OCO3)CC1 | -8.5% |
| COC[C@@H]1CCCN1C(=O)c1cc(-c2ccc(OC)cc2)n[nH]1 | -7.57% |
| COC(=O)NCc1ccc(NC(=O)CC2=CCCCC2)cc1 | 0.0251% |
| Cc1cc(O)c(OCC(=O)Nc2nc3c(s2)CCCCC3)cn1 | -1.73% |
| COc1ccc2c(c1)nc1n2[C@@H](CNC(=O)c2cccnc2)COC1 | 4.29% |
| Cc1nccn1CCCNc1ccc(Cl)c(C#N)n1 | -24.8% |
| CC1c2ccc(F)cc2CCN1C(=O)c1nc(=O)[nH][nH]1 (stereo not drawn) | -6.25% |
| CCCc1cc(C(=O)N(C)Cc2cccc3ncccc23)n(C)n1 | -14.7% |
| COc1ccc(F)cc1C(C)NC(=O)c1nnc(C)s1 (stereo not drawn) | -5.29% |
| CN(Cc1ccccc1)c1ncccc1CNC1CN2CCC1CC2 (stereo not drawn) | -6.82% |
| Cc1nc(C)n(CC2CCCCN2CC(=O)Nc2cccnc2)n1 (stereo not drawn) | -0.493% |
| Cc1ccc(NC(=O)NC(C)C(=O)N2CCS(=O)(=O)CC2)cc1 (stereo not drawn) | -7.48% |
| CCc1nc2n(n1)CC(NCC(=O)Nc1ccc(Cl)cn1)CC2 (stereo not drawn) | -18.9% |
| O=C(Cc1cn2ccsc2n1)N(Cc1ccco1)CC1CCCO1 (stereo not drawn) | 7.91% |
